According to ChEMBL document CHEMBL6087488, “Development of the First-in-Class FEM1B-Recruiting Histone Deacetylase Degraders” (J Med Chem, 2025):
Calls of active or inactive are those of the source. No cut-off for these calls is given here.

Tests used:
MM1.S [1] = experiment: Induction of cell cycle arrest in human MM1.S cells assessed as reduction in cells at […] phase at 10 uM measured after 48 hrs by propidium iodide based flow cytometry; type: functional
[2] = biological target: Protein fem-1 homolog B/Protein deacetylase HDAC6 (Homo sapiens) (UniProt Q9UBN7+Q9UK73); experiment: PROTAC activity at FEM1B/HDAC6 in human MM1.S cell lysate assessed as protein degradation at 1 uM measured after 24 hrs by Western immunoassay; type: subcellular
[3] = biological target: T1, Protein fem-1 homolog B/Histone deacetylase 1 (Homo sapiens, UniProt Q13547+Q9UK73); experiment: PROTAC activity at FEM1B/HDAC1 in human MM1.S cell lysate assessed as neddylation-dependent protein degradation at 1 uM in presence of vorinostat measured after 24 hrs by Western immunoassay; type: subcellular
[4] = biological target: Protein fem-1 homolog B/Histone deacetylase 2 (Homo sapiens) (UniProt Q92769+Q9UK73); experiment: PROTAC activity at FEM1B/HDAC2 in human MM1.S cell lysate assessed as protein degradation at 1 uM measured after 24 hrs by Western immunoassay; type: subcellular
[5] = biological target: Protein fem-1 homolog B/REST corepressor 1 (Homo sapiens) (UniProt Q9UKL0+Q9UK73); experiment: PROTAC activity at FEM1B/RCOR1 in human MM1.S cell lysate assessed as protein degradation at 0.5 uM measured after 6 hrs by global quantitative proteomics analysis; type: subcellular
[6] = biological target: T1, Protein fem-1 homolog B/Histone deacetylase 1; experiment: PROTAC activity at FEM1B/HDAC1 in human MDA-MB-231 cell lysate assessed as protein degradation at 10 uM measured after 24 hrs by Western immunoassay relative to control; type: subcellular
[7] = biological target: T1, Protein fem-1 homolog B/Histone deacetylase 1; experiment: PROTAC activity at FEM1B/HDAC1 in human U-87 MG cell lysate assessed as protein degradation at 10 uM measured after 24 hrs by Western immunoassay relative to control; type: subcellular
[8] = biological target: Protein fem-1 homolog B//Paired amphipathic helix protein Sin3a (Homo sapiens) (UniProt Q9UK73+Q96ST3); experiment: PROTAC activity at FEM1B/SIN3A in human MM1.S cell lysate assessed as protein degradation at 0.5 uM measured after 6 hrs by global quantitative proteomics analysis; type: subcellular
[9] = biological target: T1, Protein fem-1 homolog B/Histone deacetylase 1; experiment: PROTAC activity at FEM1B/HDAC1 in human MM1.S cell lysate assessed as protein degradation at 1 uM measured after 24 hrs by Western immunoassay; type: subcellular
[10] = biological target: T1, Protein fem-1 homolog B/Histone deacetylase 1; experiment: PROTAC activity at FEM1B/HDAC1 in human MM.1S cell lysate assessed as maximal initial degradation at measured after 24 hrs by Western immunoassay relative to control; type: subcellular; conditions: MM1.S
[11] = biological target: Protein fem-1 homolog B/Lysine-specific histone demethylase 1A (Homo sapiens) (UniProt O60341+Q9UK73); experiment: PROTAC activity at FEM1B/KDM1A (LSD1) in human MM1.S cell lysate assessed as protein degradation at 0.5 uM measured after 6 hrs by global quantitative proteomics analysis; type: subcellular
[12] = biological target: Protein fem-1 homolog B/Histone deacetylase 4 (Homo sapiens) (UniProt P56524+Q9UK73); experiment: PROTAC activity at FEM1B/HDAC4 in human MM1.S cell lysate assessed as protein degradation at 1 uM measured after 24 hrs by Western immunoassay; type: subcellular
[13] = biological target: T1, Protein fem-1 homolog B/Histone deacetylase 1; experiment: PROTAC activity at FEM1B/HDAC1 in human MM1.S cell lysate assessed as neddylation-dependent protein degradation at 1 uM in presence of MLN4924 measured after 24 hrs by Western immunoassay; type: subcellular
[14] = biological target: Protein fem-1 homolog B/REST corepressor 3 (Homo sapiens) (UniProt Q9P2K3+Q9UK73); experiment: PROTAC activity at FEM1B/RCOR3 in human MM1.S cell lysate assessed as protein degradation at 0.5 uM measured after 6 hrs by global quantitative proteomics analysis; type: subcellular
MM1.S [15] = experiment: Induction of apoptosis in human MM1.S cells assessed as increase in late apoptotic cells at 10 uM measured after 48 hrs by annexin V-FITC/PI staining based assay; type: functional, cell-based
[16] = biological target: Protein fem-1 homolog B/Histone deacetylase 8 (Homo sapiens) (UniProt Q9BY41+Q9UK73); experiment: PROTAC activity at FEM1B/HDAC8 in human MM1.S cell lysate assessed as protein degradation at 1 uM measured after 24 hrs by Western immunoassay; type: subcellular
[17] = biological target: T1, Protein fem-1 homolog B/Histone deacetylase 1; experiment: PROTAC activity at FEM1B/HDAC1 in human MV4-11 cell lysate assessed as protein degradation at 10 uM measured after 24 hrs by Western immunoassay relative to control; type: subcellular
MM1.S [18] = experiment: Induction of apoptosis in human MM1.S cells assessed as increase in early apoptotic cells at 10 uM measured after 48 hrs by annexin V-FITC/PI staining based assay; type: functional, cell-based
[19] = biological target: Protein fem-1 homolog B/Nuclear receptor corepressor 1 (Homo sapiens) (UniProt O75376+Q9UK73); experiment: PROTAC activity at FEM1B/NCOR1 in human MM1.S cell lysate assessed as protein degradation at 0.5 uM measured after 6 hrs by global quantitative proteomics analysis; type: subcellular
[20] = biological target: T1, Protein fem-1 homolog B/Histone deacetylase 1; experiment: PROTAC activity at FEM1B/HDAC1 in human MM1.S cell lysate assessed as initial degradation at 1 uM measured after 24 hrs by Western immunoassay; type: subcellular
[21] = biological target: Protein fem-1 homolog B//Mesoderm induction early response protein 1 (Homo sapiens) (UniProt Q9UK73+Q8N108); experiment: PROTAC activity at FEM1B/MIER1 in human MM1.S cell lysate assessed as protein degradation at 0.5 uM measured after 6 hrs by global quantitative proteomics analysis; type: subcellular
MM1.S [22] = experiment: Induction of cell cycle arrest in human MM1.s cells assessed as increase in cells at Sub-G1 phase at 10 uM measured after 48 hrs by propidium iodide based flow cytometry; type: functional
[23] = biological target: Protein fem-1 homolog B/Histone deacetylase 3 (Homo sapiens) (UniProt O15379+Q9UK73); experiment: PROTAC activity at FEM1B/HDAC3 in human MM1.S cell lysate assessed as protein degradation at 1 uM measured after 24 hrs by Western immunoassay; type: subcellular
Protein fem-1 homolog B/Histone deacetylase 3 (Homo sapiens), sequence (O15379 whole entry, looked up): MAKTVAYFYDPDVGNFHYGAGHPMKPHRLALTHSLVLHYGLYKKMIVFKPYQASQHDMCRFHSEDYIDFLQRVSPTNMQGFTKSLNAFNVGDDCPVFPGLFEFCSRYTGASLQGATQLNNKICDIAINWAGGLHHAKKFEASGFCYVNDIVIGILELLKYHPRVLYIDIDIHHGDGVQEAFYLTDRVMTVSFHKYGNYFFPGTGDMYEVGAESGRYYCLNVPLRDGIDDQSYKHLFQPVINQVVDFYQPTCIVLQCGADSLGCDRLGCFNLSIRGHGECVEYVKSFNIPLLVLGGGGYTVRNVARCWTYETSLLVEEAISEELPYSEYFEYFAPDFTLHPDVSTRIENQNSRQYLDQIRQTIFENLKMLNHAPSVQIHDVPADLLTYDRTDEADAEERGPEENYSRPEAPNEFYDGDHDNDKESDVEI
Protein fem-1 homolog B/Histone deacetylase 3 (Homo sapiens), sequence (Q9UK73 whole entry, looked up): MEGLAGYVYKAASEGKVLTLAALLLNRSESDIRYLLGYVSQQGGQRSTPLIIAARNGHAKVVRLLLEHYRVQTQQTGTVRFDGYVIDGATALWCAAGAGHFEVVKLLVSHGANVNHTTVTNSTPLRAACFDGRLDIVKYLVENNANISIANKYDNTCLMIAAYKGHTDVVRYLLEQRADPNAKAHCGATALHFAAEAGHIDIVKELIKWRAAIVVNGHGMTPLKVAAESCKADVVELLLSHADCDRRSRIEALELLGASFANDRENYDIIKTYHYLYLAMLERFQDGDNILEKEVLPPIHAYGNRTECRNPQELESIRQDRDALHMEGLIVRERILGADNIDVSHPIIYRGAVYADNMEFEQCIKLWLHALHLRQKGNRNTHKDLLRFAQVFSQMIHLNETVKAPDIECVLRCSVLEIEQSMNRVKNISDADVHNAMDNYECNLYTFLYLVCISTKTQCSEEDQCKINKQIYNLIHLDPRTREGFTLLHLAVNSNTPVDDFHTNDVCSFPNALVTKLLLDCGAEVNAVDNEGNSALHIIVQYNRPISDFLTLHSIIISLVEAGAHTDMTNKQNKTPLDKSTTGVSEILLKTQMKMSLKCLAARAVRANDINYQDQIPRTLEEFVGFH

T1 sequence (Q13547 whole entry, looked up): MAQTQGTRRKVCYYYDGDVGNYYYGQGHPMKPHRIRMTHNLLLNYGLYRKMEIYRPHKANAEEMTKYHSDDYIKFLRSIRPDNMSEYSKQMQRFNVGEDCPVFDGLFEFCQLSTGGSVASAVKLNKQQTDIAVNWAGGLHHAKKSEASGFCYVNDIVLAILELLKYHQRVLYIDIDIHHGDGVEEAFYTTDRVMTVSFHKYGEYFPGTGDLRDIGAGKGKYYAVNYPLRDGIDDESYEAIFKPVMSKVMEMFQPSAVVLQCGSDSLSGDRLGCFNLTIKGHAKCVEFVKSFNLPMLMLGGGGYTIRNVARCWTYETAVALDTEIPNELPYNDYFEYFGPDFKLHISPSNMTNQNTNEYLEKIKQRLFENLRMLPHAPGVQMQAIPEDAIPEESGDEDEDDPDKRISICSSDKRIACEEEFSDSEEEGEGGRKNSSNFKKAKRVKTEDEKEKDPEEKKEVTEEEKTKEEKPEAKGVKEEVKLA
T1 sequence (Q9UK73 whole entry, looked up): as the sequence (Q9UK73 whole entry, looked up) above
Protein fem-1 homolog B/Histone deacetylase 8 (Homo sapiens), sequence (Q9BY41 whole entry, looked up): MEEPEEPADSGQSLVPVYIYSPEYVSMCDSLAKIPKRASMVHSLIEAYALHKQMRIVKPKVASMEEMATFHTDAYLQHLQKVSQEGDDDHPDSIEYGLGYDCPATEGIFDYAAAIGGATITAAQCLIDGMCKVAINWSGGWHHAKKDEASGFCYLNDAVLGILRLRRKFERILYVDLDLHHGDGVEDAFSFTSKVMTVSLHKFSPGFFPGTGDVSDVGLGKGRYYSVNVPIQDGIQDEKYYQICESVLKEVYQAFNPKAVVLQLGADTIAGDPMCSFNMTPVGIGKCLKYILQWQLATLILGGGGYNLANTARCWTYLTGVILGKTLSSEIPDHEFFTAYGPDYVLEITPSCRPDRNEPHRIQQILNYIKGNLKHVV
Protein fem-1 homolog B/Histone deacetylase 8 (Homo sapiens), sequence (Q9UK73 whole entry, looked up): as the sequence (Q9UK73 whole entry, looked up) above
Protein fem-1 homolog B/Protein deacetylase HDAC6 (Homo sapiens), sequence (Q9UBN7 whole entry, looked up): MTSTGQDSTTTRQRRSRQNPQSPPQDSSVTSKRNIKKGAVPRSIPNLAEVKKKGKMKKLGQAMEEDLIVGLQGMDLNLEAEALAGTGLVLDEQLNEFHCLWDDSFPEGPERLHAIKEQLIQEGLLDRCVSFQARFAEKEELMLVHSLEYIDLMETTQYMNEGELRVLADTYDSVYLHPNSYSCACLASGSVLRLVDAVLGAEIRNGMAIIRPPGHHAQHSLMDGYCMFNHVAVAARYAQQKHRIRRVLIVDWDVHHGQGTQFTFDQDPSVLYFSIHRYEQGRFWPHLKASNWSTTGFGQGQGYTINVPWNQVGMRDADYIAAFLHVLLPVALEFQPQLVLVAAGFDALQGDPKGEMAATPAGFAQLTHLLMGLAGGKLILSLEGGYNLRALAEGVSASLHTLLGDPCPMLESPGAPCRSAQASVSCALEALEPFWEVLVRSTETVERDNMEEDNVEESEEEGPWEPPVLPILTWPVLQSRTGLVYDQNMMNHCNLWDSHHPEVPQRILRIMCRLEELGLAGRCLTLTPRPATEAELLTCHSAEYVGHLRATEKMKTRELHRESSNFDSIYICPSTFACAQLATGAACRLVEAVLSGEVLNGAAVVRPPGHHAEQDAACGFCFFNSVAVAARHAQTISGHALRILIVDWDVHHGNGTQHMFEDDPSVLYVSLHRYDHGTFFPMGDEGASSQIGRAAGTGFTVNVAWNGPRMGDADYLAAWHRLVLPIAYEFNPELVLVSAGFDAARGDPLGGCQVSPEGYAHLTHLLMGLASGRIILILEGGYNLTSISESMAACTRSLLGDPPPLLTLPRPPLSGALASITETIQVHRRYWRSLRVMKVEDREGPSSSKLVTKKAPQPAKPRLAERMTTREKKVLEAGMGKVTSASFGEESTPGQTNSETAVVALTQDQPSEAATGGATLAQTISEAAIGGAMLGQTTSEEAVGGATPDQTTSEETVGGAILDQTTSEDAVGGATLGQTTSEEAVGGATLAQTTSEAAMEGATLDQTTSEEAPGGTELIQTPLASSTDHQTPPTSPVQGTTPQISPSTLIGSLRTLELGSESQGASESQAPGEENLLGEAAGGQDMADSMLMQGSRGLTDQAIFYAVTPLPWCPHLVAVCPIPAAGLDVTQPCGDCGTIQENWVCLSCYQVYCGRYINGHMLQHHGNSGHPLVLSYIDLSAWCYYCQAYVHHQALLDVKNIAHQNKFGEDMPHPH
Protein fem-1 homolog B/Protein deacetylase HDAC6 (Homo sapiens), sequence (Q9UK73 whole entry, looked up): as the sequence (Q9UK73 whole entry, looked up) above

Activity [2]: inactive | Activity [3]: inactive | Activity [4]: Active | Activity [5]: Active | Activity [6]: 53% | Activity [7]: 75% | Activity [8]: Active | Activity [9]: Active | Emax [10]: 85.2% | Activity [11]: Active | Activity [12]: inactive | Activity [13]: inactive | Activity [14]: Active | Activity [16]: inactive | Activity [17]: 87% | Activity [19]: Active | Activity [20]: 62.3% | Activity [21]: Active | Activity [23]: Active
Structure (SMILES): N#CCCN(C(=O)CCl)c1ccc2c(c1)OCCN2CC(=O)NCC(=O)Nc1ccc(C(=O)NCCCCCCC(=O)NO)cc1
Activity (MM1.S [1]): Active | Activity (MM1.S [15]): Active | Activity (MM1.S [18]): Active | Activity (MM1.S [22]): Active
